Laboratory results published in patent publication US20260232625A1, “NOVEL DECURSIN DERIVATIVE AND USE THEREOF FOR PREVENTING OR TREATING NON-SMALL CELL LUNG CANCER” (JAEIN R&P INC., priority 2023, published 2026).
“Also recorded” adds a separate entry of the source.

Columns and labels:
[1] = tested on: A549; assay: MTT cytotoxicity evaluation against A549 cells; assay type: cell-based, human; details: for IC50: Homo sapiens, A549, 48 h, 48 hours
Protocol: (§1) A549 (human lung cancer cells) were obtained from the American Type Culture Collection (ATCC) and used. The cells were cultured in a medium containing 10% FBS, 1% penicillin (10,000 units/mL), and streptomycin (10 mg/mL), or in Dulbecco's Modified Eagle's Medium (DMEM), at 37° C. under 5% CO2 conditions.
To measure cytotoxicity, an MTT assay was used. Specifically, A549 cells cultured according to Experimental Example 1 were seeded into a 96-well plate at a density of 2.5×10^4 cells/mL in 100 μL, and incubated for 24 hours. Thereafter, the cells were treated with either the compounds prepared according to Examples 1 to 27 or, as comparative agents, decursin or docetaxel. The prepared compounds and decursin were each administered to the A549 cell line at concentrations of 0 μM (untreated), 12.5 μM, 25 μM, 50 μM, 100 μM, and 200 μM, while docetaxel was administered at concentrations of 0 nM (untreated), 0.1 nM, 1 nM, 10 nM, 100 nM, and 1,000 nM, followed by incubation for an additional 48 hours. Then, 20 μL of MTT solution was added (Method 1). Alternatively, the compounds prepared according to Examples 28 to 30, the compound of Example 5 as a reference compound or, as comparative agents, decursin or docetaxel, were used. The prepared compounds, the compound of Example 5, and decursin were each administered at concentrations of 0 μM (untreated), 3.125 μM, 6.25 μM, 12.5 μM, 25 μM, and 50 μM, while docetaxel was administered at concentrations of 0 nM (untreated), 0.6 nM, 1.25 nM, 2.5 nM, 5 nM, and 10 nM, and treated in the same manner as described in Method 1 (Method 2). The cells treated with MTT solution were incubated for 2 hours, the medium was removed, and the formazan blue crystals formed by the cells were treated with an MTT lysis buffer, followed by incubation in a cell incubator for 24 hours. The MTT lysis buffer was prepared by mixing N,N-dimethylformamide with water in a 1:1 ratio to give a solution containing 20% SIDS (sodium dodecyl sulfate) at the final concentration. The optical density at 590 nm was measured using a microplate reader (FIGS. 1a to 1d). Based on the measured values, the cytotoxicity (IC50) against A549 was calculated, and the results are disclosed in Table 1 together with the structural formulae.

[2] = tested on: A549 cells; assay: Co-administration with gefitinib, MTT cell viability and synergy score in A549 cells; assay type: cell-based, human; details: for cytotoxicity against A549 on co-administration with gefitinib: gefitinib 1.25-20 μM plus compound 6.25-100 μM, compared with decursin plus gefitinib, FIG. 2
Protocol: as §1
Nevertheless, the compound of Example 5, when used as a single agent, was somewhat limited in its efficacy, and therefore its potential as a co-administration agent with existing non-small cell lung cancer therapeutic agents was examined. To this end, gefitinib (Iressa) was selected, and the compound of Example 5, together with decursin for comparison, was co-administered to A549 cells, and the cytotoxicity thereof was measured. To further evaluate dose dependency, gefitinib was administered at concentrations of 0 μM (untreated), 1.25 μM, 2.5 μM, 5 μM, 10 μM, and 20 μM, in combination with either decursin or the […], each administered at concentrations of 0 μM (untreated), 6.25 μM, 12.5 μM, 25 μM, 50 μM, and 100 μM. The relative cell viability was measured by setting the viability of the untreated group, i.e., cells not treated with either gefitinib or decursin/decursin derivative, to 100%, and the results are shown in FIG. 2. Cell viability was determined using an MTT assay. […] In particular, as the concentration of the decursin derivative increased to 12.5 μM or higher, the difference in cell-killing effect became more pronounced.
Furthermore, the synergy score of the cytotoxicity of the combination of gefitinib with decursin or with the decursin derivative compound of Example 5 against A549 cells was calculated using the Synergyfinder webtool, and the results are shown in FIG. 3. A calculated synergy score of 10 or more was considered to indicate a synergistic effect, a score between −10 and 10 was considered to indicate an additive effect, and a score below −10 was considered to indicate an antagonistic effect.

[3] = Method 2 (marked *): 3.125-50 μM

**Q.** For `CC1(C)Oc2cc3oc(=O)ccc3cc2C[C@@H]1OC(=O)/C=C/c1ccoc1` [Example 5, (S,E)-2,2-dimethyl-8-oxo-2,3,4,8-tetrahydropyrano[3,2-g]chromen-3-yl 3-(furan-3-yl)acrylate], which IC50 ([1]; Method 1: 12.5-200 μM) is on record?
**A.** 30.3 µM

**Q.** And the IC50 [1, 3]?
**A.** 7.88 µM

**Q.** And the “cell-killing effect against human lung cancer cell line A549 compared to decursin” value ([1]; single agent)?
**A.** superior cell-killing effect; also recorded: most potent effect

**Q.** And the “synergy score of cytotoxicity against A549” value ([2]; 10 μM gefitinib plus 6.25 μM compound, Synergyfinder webtool, score of 10 or more = synergistic)?
**A.** ~15

**Q.** What about the “cytotoxicity against A549 on co-administration with gefitinib” value [2] of the same molecule?
**A.** superior to that observed with co-administration of decursin and gefitinib

**Q.** And the “cytotoxicity against A549 on co-administration with gefitinib” value ([2]; listed as compound of Formula 2)?
**A.** synergistic cell-killing effect

**Q.** For `CN(C)c1ccc(/C=C/C(=O)O[C@H]2Cc3cc4ccc(=O)oc4cc3OC2(C)C)cc1` [Example 30, (S,E)-2,2-dimethyl-8-oxo-2,3,4,8-tetrahydropyrano[3,2-g]chromen-3-yl 3-(4-(dimethylamino)phenyl)acrylate], which IC50 [1, 3] is on record?
**A.** 151 µM
